Measured values: PMC10272112 (Nature Communications, 2023)

Columns and labels:
Type in all cases: binding
GSE1 = assay: Chemoproteomic competition pulldown assay (co-competed CoREST partner)
Procedure: (§1) To identify proteins directly bound by lipoic acid, we employed a chemoproteomic competition assay. Briefly, (R/S)-LA was immobilized on sepharose beads via an amidation reaction to form an affinity matrix (abbreviated as iL; Fig. 1a). This affinity matrix can be incubated with cell lysate to pull down potential LA or LM target proteins and identify these targets via bottom-up proteomics. In a competition assay, free LA or LM were incubated with lysate at different concentrations before pulling down and quantifying target proteins. […] (Fig. 1b, see “Methods” for details). […] The lysate buffer used in this assay contains 1 mM DTT to mimic the intracellular reductive milieu and to reduce lipoic acid and LM. […] Additional competition assays performed in lung adenocarcinoma cell A549 lysate also identified HDAC1, HDAC2, and HDAC6 as targets (Supplementary Fig. 1b). Amongst the three cell lines tested, HDACs were the only confidently identified targets across the 1500–3000 proteins quantified in these assays. […] We validated the results by analogous pulldown competition assays using two other affinity matrices prepared via the immobilization of either the HDAC inhibitor Quisinostat (iQ) and an analog of the class IIa HDAC inhibitor Bürli’s 31[14] (iC)[12]. We have previously shown that these affinity matrices specifically bind to the active sites of HDACs and have used them for HDACi selectivity profiling. Indeed, binding of (R/S)-LA and (R/S)-LM to HDAC1, HDAC2, HDAC3, HDAC6, and, to a lesser extent, HDAC8 was confirmed in these assays (Supplementary Fig. 1c, d). No binding to class IIa HDACs or the recently discovered common HDAC inhibitor off-target MBLAC2 was observed (Supplementary Fig. 1e)[12]. […] This observation might reflect electrostatic repulsion between the HDAC10 active site gate-keeper glutamic acid residues[15],[16] and the terminal carboxylic acid of LA.
(§2) To assess the degree of protein depletion from lysates by the affinity matrix, a second pulldown (PDPD) with fresh beads was performed using the unbound protein fraction from the vehicle control flow through. The beads were washed (1 × 1 mL of lysis buffer without inhibitors and only 0.4% Igepal, 2 × 2 mL of lysis buffer without inhibitors and only 0.2% Igepal), and captured proteins were denatured with 8 M urea buffer, alkylated with 55 mM chloroacetamide and digested with Trypsin according to standard procedures. The resulting peptides were desalted on a C18 filter plate (Sep-Pak® tC18 µElution Plate, Waters), vacuum dried, and stored at −20 °C until LC–MSMS measurement.
(§3) For the competition assays, relative binding was calculated based on the protein intensity ratio to the DMSO control for every single inhibitor concentration. EC50 values were derived from a four-parameter log-logistic regression with variable slope (constrain: bottom > 0). The obtained EC50 values were multiplied with a protein-dependent correction factor (cf), resulting in the apparent Kd value (Kd^app). The correction factor is determined by calculating the ratio of the protein intensity of two consecutive pulldowns of the vehicle control sample[13]. Targets of the inhibitors were annotated manually according to published procedures[12],[46],[47]. […] Additionally, the number of unique peptides and MSMS counts per condition were taken into account. Positive target binding across several independent experiments performed with different cell lysates further substantiated our confidence for a true positive drug-target binding event.

HMG20B = assay: as above; settings: iL, MV4-11 lysate
Procedure: as §1, §2, §3

RCOR1 = assay: as above; settings: iL, MV4-11 lysate
Procedure: as §1, §2, §3

RCOR3 = assay: as above
Procedure: as §1, §2, §3

MIER1 = assay: Chemoproteomic competition pulldown assay (HDAC interactor); settings: iQ, SW620 lysate
Procedure: as §1, §2, §3

[1] = iL, MV4-11 lysate, log10 M -3.52288
[2] = iL, MV4-11 lysate, log10 M -4.52288
[3] = iL, MV4-11 lysate, log10 M -5.52288
[4] = iL, MV4-11 lysate, log10 M -6.52288
[5] = iQ, SW620 lysate, log10 M -3.52288
[6] = iQ, SW620 lysate, log10 M -4.52288
[7] = iQ, SW620 lysate, log10 M -5.52288
[8] = iQ, SW620 lysate, log10 M -6.52288

relative binding vs DMSO (GSE1; [1]): 0.03208
relative binding vs DMSO (GSE1; iL, MV4-11 lysate, log10 M -4): 0.05802
relative binding vs DMSO (GSE1; [2]): 0.1417
relative binding vs DMSO (GSE1; iL, MV4-11 lysate, log10 M -5): 0.4933
relative binding vs DMSO (GSE1; [3]): 0.6793
relative binding vs DMSO (GSE1; iL, MV4-11 lysate, log10 M -6): 0.8351
relative binding vs DMSO (GSE1; [4]): 0.9265
relative binding vs DMSO (GSE1; iL, MV4-11 lysate, log10 M -7): 0.8883
relative binding vs DMSO (GSE1; [5]): 0.1386
relative binding vs DMSO (GSE1; iQ, SW620 lysate, log10 M -4): 0.1278
relative binding vs DMSO (GSE1; [6]): 0.3991
relative binding vs DMSO (GSE1; iQ, SW620 lysate, log10 M -5): 0.559
relative binding vs DMSO (GSE1; [7]): 0.8469
relative binding vs DMSO (GSE1; iQ, SW620 lysate, log10 M -6): 1.003
relative binding vs DMSO (GSE1; [8]): 0.8631
relative binding vs DMSO (GSE1; iQ, SW620 lysate, log10 M -7): 0.9076
relative binding vs DMSO (HMG20B; log10 M -3.52288): 0.0242
relative binding vs DMSO (HMG20B; log10 M -4): 0.0521
relative binding vs DMSO (HMG20B; log10 M -4.52288): 0.1443
relative binding vs DMSO (HMG20B; log10 M -5): 0.4724
relative binding vs DMSO (HMG20B; log10 M -5.52288): 0.6292
relative binding vs DMSO (HMG20B; log10 M -6): 0.8935
relative binding vs DMSO (HMG20B; log10 M -6.52288): 0.8513
relative binding vs DMSO (HMG20B; log10 M -7): 1.055
relative binding vs DMSO (RCOR1; log10 M -3.52288): 0.05785
relative binding vs DMSO (RCOR1; log10 M -4): 0.0548
relative binding vs DMSO (RCOR1; log10 M -4.52288): 0.1462
relative binding vs DMSO (RCOR1; log10 M -5): 0.4201
relative binding vs DMSO (RCOR1; log10 M -5.52288): 0.5816
relative binding vs DMSO (RCOR1; log10 M -6): 0.5592
relative binding vs DMSO (RCOR1; log10 M -6.52288): 0.7783
relative binding vs DMSO (RCOR1; log10 M -7): 0.8248
relative binding vs DMSO (RCOR3; [1]): 0.04482
relative binding vs DMSO (RCOR3; iL, MV4-11 lysate, log10 M -4): 0.03145
relative binding vs DMSO (RCOR3; [2]): 0.2203
relative binding vs DMSO (RCOR3; iL, MV4-11 lysate, log10 M -5): 0.5854
relative binding vs DMSO (RCOR3; [3]): 0.7487
relative binding vs DMSO (RCOR3; iL, MV4-11 lysate, log10 M -6): 1.237
relative binding vs DMSO (RCOR3; [4]): 1.016
relative binding vs DMSO (RCOR3; iL, MV4-11 lysate, log10 M -7): 0.9839
relative binding vs DMSO (RCOR3; [5]): 0.0548
relative binding vs DMSO (RCOR3; iQ, SW620 lysate, log10 M -4): 0.3164
relative binding vs DMSO (RCOR3; [6]): 0.4259
relative binding vs DMSO (RCOR3; iQ, SW620 lysate, log10 M -5): 0.6647
relative binding vs DMSO (RCOR3; [7]): 0.7959
relative binding vs DMSO (RCOR3; iQ, SW620 lysate, log10 M -6): 1.1558
relative binding vs DMSO (RCOR3; [8]): 0.7323
relative binding vs DMSO (RCOR3; iQ, SW620 lysate, log10 M -7): 0.9341
relative binding vs DMSO (MIER1; log10 M -3.52288): 0.1808
relative binding vs DMSO (MIER1; log10 M -4): 0
relative binding vs DMSO (MIER1; log10 M -4.52288): 0.3328
relative binding vs DMSO (MIER1; log10 M -5): 0.7626
relative binding vs DMSO (MIER1; log10 M -5.52288): 0.9557
relative binding vs DMSO (MIER1; log10 M -6): 1.104
relative binding vs DMSO (MIER1; log10 M -6.52288): 0.974
relative binding vs DMSO (MIER1; log10 M -7): 1.319
SMILES: NC(=O)CCCCC1CCSS1 (racemic) [(R/S)-LM, (R/S)-lipoamide]
